According to patent US6479549B2, “Carnosic acid derivatives for promoting synthesis of nerve growth factor” (Nagase & Company, Ltd., priority 2000, dated 2002):

How the values were obtained:
[1] = system: Human glioblastoma cells (T98G cell line); assay: NGF content in culture supernatant of T98G cells (sandwich enzyme immunoassay); type: cell-based; settings: for NGF Content in sample solution: 100 uM effective ingredient in Opti-MEM medium, T98G cells, 4 days cultivation, mean ± standard deviation, comparative example (none) 6.3 ± 1.2; for Relative NGF content: 100 uM, ratio of NGF content in example solution to that in comparative example solution (=1.0)
Description: Human glioblastoma cells (T98G cell line) were seeded in a MEM medium containing fetal bovine serum (10%; Gibco), sodium pyruvate (x 1; Gibco) and nonessential amino acids (x 1; Gibco) in wells of a flat-bottom 96-well plate (Corning), in a cell density of 2×10^4/well, and cultivated in a CO2 incubator (37° C., 5% CO2) for 3 days. The medium was then replaced by an Opti-MEM medium (containing 5 mg/ml of bovine serum albumin). The cultivation was continued for further 6 days with replacing the medium at intervals of 3 days.
After removing the medium, an Opti-MEM medium (containing 5 mg/ml of bovine serum albumin) containing 100 uM (micromole) of carnosic acid diacetate obtained in Example 1 was added to each well in an amount of 50 ul (microliter)/well, and the cultivation was continued for further 4 days. After the cultivation, the supernatant was taken as a sample solution.
On the other hand, 1 ug/ml of an anti-NGF antibody (Promega) solution (50 ul) was added to each well of a 96-well microplate (Nunc), and the plate was allowed to stand overnight at 4° C. After washing the plate with PBS(-) (Nissui Pharmaceuticals), 1% of a bovine serum albumin (Sigma) solution (100 ul) was added to each well of the plate and the plate was allowed to stand at room temperature for 4 hrs to block the plate. […]
Subsequently, 0.4 unit/ml of a beta-galactosidase-labeled anti-NGF antibody (Boehringer Mannheim) solution (50 ul) was added to each well of the plate, and allowed to react at room temperature for one hour. […] The fluorescence intensity of 4-methylumbelliferone produced was measured on a fluorescence plate reader, and the content of NGF contained in the sample solution was determined using a standard curve obtained from a standard solution (human beta-NGF; PEPRO TECH EC).
The content of NGF contained in the sample solution was determined as described in Example 4, except that an Opti-MEM medium (containing 5 mg/ml of bovine serum albumin) containing 100 uM of carnosic acid diacetate methyl ester obtained in Example 2 was used in an amount of 50 ul/well, instead of carnosic acid diacetate.
The content of NGF contained in the sample solution was determined as described in Example 4, except that an Opti-MEM medium (containing 5 mg/ml of bovine serum albumin) containing 100 uM of carnosic acid methyl ester obtained in Example 3 was used inan amount of 50 ul/well, instead of carnosic acid diacetate.
The content of NGF contained in the sample solution was determined as described in Example 4, except that an Opti-MEM medium (containing 5 mg/ml of bovine serum albumin) not containing carnosic acid diacetate was used in an amount of 50 ul/well, instead of the Opti-MEM medium containing carnosic acid diacetate.

Wistar male rats = assay: Ethanol-induced stomach ulcers in rats (ulcer index); type: in vivo; settings: 10 mg/kg body weight oral
Description: To Wistar male rats (5 rats per group) of 180-200 g body weight fasted for 24 hours before the start of a test, carnosic acid diacetate obtained in Example 1 was orally administered in a dose level of 10 mg per kg body weight, after suspending it in water. After 30 minutes of the administration, 1 ml of ethanol (99.5%) was orally administered to each rat. After one hour of the ethanol administration, laparotomy was carried out and the lengths of all ulcers developed in the stomach were measured arld added up. The total lengths of ulcers are taken as ulcer indexes.
The lengths of all ulcers developed in the stomach were measured and added up as described in Example 7, except that water containing carnosic acid methyl ester (10 mg per kg body weight) was used instead of water containing carnosic acid diacetate. The total lengths of ulcers are taken as ulcer indexes.
The lengths of all ulcers developed in the stomach were measured and added up as described in Example 7, except that water not containing carnosic acid diacetate was used instead of water containing carnosic acid diacetate. The total lengths of ulcers are taken as ulcer indexes.

Row | Compound | NGF Content in sample solution [1] [pg/mL] | Relative NGF content [1] | Ulcer index (Wistar male rats; 30 minutes before 1 ml ethanol (99.5%) oral, total length of stomach ulcers 1 hour after ethanol, mean ± standard deviation, comparative example 62.4) [mm] | Relative ulcer index (Wistar male rats; ratio of ulcer index in example to that in comparative example 2 (=100))
1 | COC(=O)[C@]12CCCC(C)(C)C1CCc1cc(C(C)C)c(O)c(O)c12 (stereo partly drawn) [Carnosic acid methyl ester, carnosic acid methyl ester] | 33.3 ± 2.8 | 5.3 | 33.6 ± 3.6 | 53.8
2 | COC(=O)[C@@]12CCCC(C)(C)[C@H]1CCc1cc(C(C)C)c(OC(C)=O)c(OC(C)=O)c12 [Carnosic acid diacetate methyl ester, carnosic acid diacetate methyl ester] | 50.6 ± 4.3 | 8.0 |  | 
